Values belong to the compound of their own block, whether it stands above or below them.
Tests used:
Histone deacetylase 1 = Histone deacetylase 1 (Homo sapiens, UniProt Q13547); experiment: Inhibition of HDAC1 (unknown origin) using RHKK(Ac)AMC fluorogenic peptide as substrate preincubated for 10 mins followed by substrate addition for 1 hr in presence of ATP by fluoroscence based assay
[1] = Metabolic stability in human liver microsomes assessed as half life measured for 75 to 130 mins by LC-MS/MS analysis; type: ADME, Microsome; settings: time 75-130 min; for half-life: liver microsomes; for t1/2: microsomes
[2] = Metabolic stability in human liver microsomes assessed as intrinsic clearance measured for 75 to 130 mins by LC-MS/MS analysis; type: ADME, Microsome; settings: time 75-130 min; for microsomal CLint: liver microsomes, read-out: CLH
MDA-MB-231 [3] = experiment: Antiproliferative activity against human MDA-MB-231 cells assessed as remaining cell activity at 2 uM incubated for 72 hrs by luminescence assay relative to control; type: functional
A549 [4] = experiment: Antiproliferative activity against human A549 cells assessed as remaining cell activity at 2 uM incubated for 72 hrs by luminescence assay relative to control; type: functional
HCT-116 = experiment: Antiproliferative activity against human HCT-116 cells assessed as remaining cell activity at 2 uM incubated for 72 hrs by luminescence assay relative to control; type: functional
TMD8 [5] = experiment: Antiproliferative activity against human TMD8 cells assessed as remaining cell activity at 2 uM incubated for 72 hrs by luminescence assay relative to control; type: functional
TMD8 [6] = experiment: Antiproliferative activity against human TMD8 cells incubated for 72 hrs by luminescence assay; type: functional, cell-based; settings: TMD8, 72 h
MDA-MB-231 [7] = experiment: Antiproliferative activity against human MDA-MB-231 cells incubated for 72 hrs by luminescence assay; type: functional, cell-based; settings: MDA-MB-231, 72 h
[8] = AUC (0 to infinity) in ICR mouse at 25 mg/kg, po measured upto 24 hrs by LC-MS/MS analysis; type: ADME, organism-based; set-up: time < 24 hrs, dose 25 mg/kg, route po; settings: in vivo
CWR22R = experiment: Antiproliferative activity against human 22Rv1 cells incubated for 72 hrs by luminescence assay; type: functional, cell-based; settings: 22Rv1, 72 h
HuT78 = experiment: Antiproliferative activity against human HuT78 cells incubated for 72 hrs by luminescence assay; type: functional, cell-based; settings: HuT78, 72 h
786-0 = experiment: Antiproliferative activity against human 786-O cells incubated for 72 hrs by luminescence assay; type: functional, cell-based; settings: 786-0, 72 h
CCRF-CEM = experiment: Antiproliferative activity against human CCRF-CEM cells incubated for 72 hrs by luminescence assay; type: functional, cell-based
A549 [9] = experiment: Antiproliferative activity against human A549 cells incubated for 72 hrs by luminescence assay; type: functional, cell-based; settings: A549, 72 h
NCI-H460 = experiment: Antiproliferative activity against human NCI-H460 cells incubated for 72 hrs by luminescence assay; type: functional, cell-based; settings: NCI-H460, 72 h
MOLT-4 = experiment: Antiproliferative activity against human MOLT-4 cells incubated for 72 hrs by luminescence assay; type: functional, cell-based; settings: MOLT-4, 72 h
[10] = Half life in ICR mouse at 25 mg/kg, po measured upto 24 hrs by LC-MS/MS analysis; type: ADME, organism-based; settings: in vivo
RS4-11 = experiment: Antiproliferative activity against human RS4-11 cells incubated for 72 hrs by luminescence assay; type: functional, cell-based; settings: RS4-11, 72 h
[11] = MRT in ICR mouse at 25 mg/kg, po measured upto 24 hrs by LC-MS/MS analysis; type: ADME, organism-based; settings: in vivo
[12] = AUC (0 to infinity) in ICR mouse at 2 mg/kg, iv measured upto 24 hrs by LC-MS/MS analysis; type: ADME, organism-based; set-up: time < 24 hrs, dose 2 mg/kg, route iv; settings: in vivo
COLO-678 = experiment: Antiproliferative activity against human COLO-678 cells incubated for 72 hrs by luminescence assay; type: functional, cell-based; settings: COLO-678, 72 h
NCI-H441 = experiment: Antiproliferative activity against human NCI-H441 cells incubated for 72 hrs by luminescence assay; type: functional, cell-based; settings: NCI-H441, 72 h
[13] = Cmax in ICR mouse at 25 mg/kg, po measured upto 24 hrs by LC-MS/MS analysis; type: ADME, organism-based; set-up: time < 24 hrs, dose 25 mg/kg, route po; settings: in vivo
SU-DHL-2 = experiment: Antiproliferative activity against human SUDHL2 cells incubated for 72 hrs by luminescence assay; type: functional, cell-based; settings: SU-DHL-2, 72 h
Rec1 = experiment: Antiproliferative activity against human REC1 cells incubated for 72 hrs by luminescence assay; type: functional, cell-based; settings: Rec1, 72 h
SK-OV-3 = experiment: Antiproliferative activity against human SK-OV-3 cells incubated for 72 hrs by luminescence assay; type: functional, cell-based; settings: SK-OV-3, 72 h
[14] = Metabolic stability in mouse liver microsomes assessed as half life measured for 75 to 130 mins by LC-MS/MS analysis; type: ADME, Microsome; settings: time 75-130 min
[15] = Oral bioavailability in ICR mouse at 25 mg/kg measured upto 24 hrs by LC-MS/MS analysis; type: ADME, organism-based; settings: in vivo
DOHH-2 = experiment: Antiproliferative activity against human DOHH-2 cells incubated for 72 hrs by luminescence assay; type: functional, cell-based; settings: DOHH-2, 72 h
HT-29 = experiment: Antiproliferative activity against human HT-29 cells incubated for 72 hrs by luminescence assay; type: functional, cell-based; settings: HT-29, 72 h

Chain of Histone deacetylase 1 (Q13547 whole entry): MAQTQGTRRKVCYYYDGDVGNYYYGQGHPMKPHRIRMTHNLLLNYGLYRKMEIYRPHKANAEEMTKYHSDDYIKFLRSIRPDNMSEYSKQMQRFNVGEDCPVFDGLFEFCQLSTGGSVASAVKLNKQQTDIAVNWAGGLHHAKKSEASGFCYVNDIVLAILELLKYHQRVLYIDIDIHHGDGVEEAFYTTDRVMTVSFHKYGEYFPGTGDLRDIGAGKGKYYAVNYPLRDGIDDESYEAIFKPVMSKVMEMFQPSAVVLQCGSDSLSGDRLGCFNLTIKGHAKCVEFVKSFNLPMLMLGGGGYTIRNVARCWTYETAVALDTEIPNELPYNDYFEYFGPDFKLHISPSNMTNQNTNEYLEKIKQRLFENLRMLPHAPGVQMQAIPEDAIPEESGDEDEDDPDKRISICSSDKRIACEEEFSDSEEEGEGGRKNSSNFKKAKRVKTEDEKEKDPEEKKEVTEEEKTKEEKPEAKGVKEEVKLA

Compound: Nc1ccccc1NC(=O)c1ccc(CN2CC/C(=C\c3ccccn3)C2=O)cc1
- Activity (MDA-MB-231 [3]): 60.99%
- IC50 (Histone deacetylase 1): 82 nM
- Activity (A549 [4]): 74.98%
- Activity (HCT-116): 56.41%
- Activity (TMD8 [5]): 15.5%

Compound: COc1ccc(/C=C2\CCCN(Cc3ccc(C(=O)Nc4ccc(F)cc4N)cc3)C2=O)cc1
- IC50 (Histone deacetylase 1): 906 nM

Compound: Nc1cc(F)ccc1NC(=O)c1ccc(CN2CCC/C(=C\c3ccc(Br)cc3)C2=O)cc1
- IC50 (Histone deacetylase 1): 1960 nM

Compound: Nc1cc(F)ccc1NC(=O)c1ccc(CN2CCC/C(=C\c3ccco3)C2=O)cc1
- IC50 (Histone deacetylase 1): 1200 nM

Compound: Nc1cc(F)ccc1NC(=O)c1ccc(CN2CC/C(=C\c3ccccn3)C2=O)cc1
- Activity (MDA-MB-231 [3]): 83.37%
- IC50 (Histone deacetylase 1): 866 nM
- Activity (A549 [4]): 93.24%
- Activity (HCT-116): 121.48%
- t1/2 [1]: 15.6 h
- Activity (TMD8 [5]): 29.75%
- Intrinsic clearance in human liver microsomes [2]: 10.2 µL/min/mg

Compound: Cc1ccccc1/C=C1\CCCN(Cc2ccc(C(=O)Nc3ccc(F)cc3N)cc2)C1=O
- IC50 (Histone deacetylase 1): 2450 nM

Compound: Nc1ccccc1NC(=O)c1ccc(CN2CCC/C(=C\c3ccco3)C2=O)cc1
- Activity (MDA-MB-231 [3]): 53.88%
- IC50 (Histone deacetylase 1): 303 nM
- Activity (A549 [4]): 61.8%
- Activity (HCT-116): 44.43%
- half-life [1]: 5.18 h
- Activity (TMD8 [5]): 5.48%
- microsomal CLint [2]: 4.45 µL/min/mg

Compound: Nc1cc(F)ccc1NC(=O)c1ccc(CN2CCC/C(=C\c3cccnc3)C2=O)cc1
- IC50 (Histone deacetylase 1): 2340 nM

Compound: Nc1cc(F)ccc1NC(=O)c1ccc(CN2CCC/C(=C\c3ccc(F)cc3)C2=O)cc1
- IC50 (Histone deacetylase 1): 2630 nM

Compound: Nc1ccccc1NC(=O)c1ccc(CN2CCC/C(=C\c3cccnc3)C2=O)cc1
- Activity (MDA-MB-231 [3]): 58.3%
- IC50 (Histone deacetylase 1): 219 nM
- Activity (A549 [4]): 72.41%
- Activity (HCT-116): 57.19%
- half-life [1]: 4.6 h
- Activity (TMD8 [5]): 23.83%
- microsomal CLint [2]: 5.02 µL/min/mg

Compound: Nc1cc(F)ccc1NC(=O)c1ccc(CNC(=O)/C=C/c2cccnc2)cc1 [TUCIDINOSTAT]
- IC50 (TMD8 [6]): 480 nM
- IC50 (MDA-MB-231 [7]): 9520 nM
- AUC(0-inf) [8]: 3520 ng·h/mL
- IC50 (CWR22R): 1080 nM
- IC50 (HuT78): 2420 nM
- IC50 (786-0): 630 nM
- IC50 (CCRF-CEM): 830 nM
- IC50 (A549 [9]): 2790 nM
- Activity (MDA-MB-231 [3]): 69.91%
- IC50 (NCI-H460): 2340 nM
- IC50 (MOLT-4): 750 nM
- half-life [10]: 4 h
- IC50 (RS4-11): 600 nM
- MRT [11]: 4.2 h
- AUC(0-inf) [12]: 1350 ng·h/mL
- IC50 (COLO-678): > 10000 nM
- IC50 (NCI-H441): 2620 nM
- Activity (A549 [4]): 96.6%
- Cmax [13]: 1220 ng/mL
- IC50 (SU-DHL-2): 560 nM
- IC50 (Rec1): 1010 nM
- Activity (HCT-116): 102.26%
- IC50 (SK-OV-3): 8460 nM
- t1/2 [1]: 6.27 h
- half-life [14]: 1.3 h
- bioavailability [15]: 20.8%
- Activity (TMD8 [5]): 5.96%
- IC50 (DOHH-2): 530 nM
- IC50 (HT-29): 6040 nM
- Intrinsic clearance in human liver microsomes [2]: 1.7 µL/min/mg

Compound: Cc1ccc(NC(=O)c2ccc(CN3CCC/C(=C\c4ccc(Cl)cc4)C3=O)cc2)c(N)c1
- IC50 (Histone deacetylase 1): > 10000 nM

Compound: Nc1cc(F)ccc1NC(=O)c1ccc(CN2CCC/C(=C\c3ccncc3)C2=O)cc1
- IC50 (Histone deacetylase 1): 2510 nM

Compound: Nc1cc(F)ccc1NC(=O)c1ccc(CN2CC/C(=C\c3ccccc3)C2=O)cc1
- IC50 (Histone deacetylase 1): 424 nM
- half-life [1]: 2.1 h
- microsomal CLint [2]: 11.3 µL/min/mg

Compound: Nc1cc(Br)ccc1NC(=O)c1ccc(CN2CCC/C(=C\c3ccc(Cl)cc3)C2=O)cc1
- IC50 (Histone deacetylase 1): > 10000 nM

Compound: Cc1ccc(/C=C2\CCCN(Cc3ccc(C(=O)Nc4ccc(F)cc4N)cc3)C2=O)cc1
- IC50 (Histone deacetylase 1): 794 nM

Compound: Nc1cc(F)ccc1NC(=O)c1ccc(CN2CCC/C(=C\c3ccc4ccccc4c3)C2=O)cc1
- IC50 (Histone deacetylase 1): 1200 nM

Compound: Nc1cc(F)ccc1NC(=O)c1ccc(CN2CCC/C(=C\c3ccccn3)C2=O)cc1
- IC50 (Histone deacetylase 1): 1350 nM

Compound: Cc1cccc(/C=C2\CCCN(Cc3ccc(C(=O)Nc4ccc(F)cc4N)cc3)C2=O)c1
- IC50 (Histone deacetylase 1): 928 nM

Further lines, with some results ahead:

- IC50 (Histone deacetylase 1): 195 nM
- half-life [1]: 2.1 h
- microsomal CLint [2]: 11 µL/min/mg
Compound: Nc1ccccc1NC(=O)c1ccc(CN2CCC/C(=C\c3ccccc3)C2=O)cc1

- IC50 (Histone deacetylase 1): 692 nM
Compound: Nc1ccccc1NC(=O)c1ccc(CN2CCC/C(=C\c3ccc4ccccc4c3)C2=O)cc1

- IC50 (Histone deacetylase 1): 572 nM
Compound: Nc1ccccc1NC(=O)c1ccc(CN2CCC/C(=C\c3ccc(Cl)c(F)c3)C2=O)cc1

- IC50 (Histone deacetylase 1): 1940 nM
Compound: Nc1cc(F)ccc1NC(=O)c1ccc(CN2CCC/C(=C\c3cccc(Cl)c3)C2=O)cc1

- IC50 (Histone deacetylase 1): 2210 nM
Compound: Nc1cc(F)ccc1NC(=O)c1ccc(CN2CCC/C(=C\c3ccccc3)C2=O)cc1

- IC50 (Histone deacetylase 1): 396 nM
- half-life [1]: 2.48 h
- microsomal CLint [2]: 9.3 µL/min/mg
Compound: Nc1ccccc1NC(=O)c1ccc(CN2CCC/C(=C\c3ccccc3Cl)C2=O)cc1

- IC50 (Histone deacetylase 1): 1490 nM
Compound: Nc1ccccc1NC(=O)c1ccc(CN2CCC/C(=C\c3ccc(Cl)c(C(F)(F)F)c3)C2=O)cc1

- IC50 (Histone deacetylase 1): 487 nM
- half-life [1]: 2.42 h
- microsomal CLint [2]: 9.57 µL/min/mg
Compound: Nc1ccccc1NC(=O)c1ccc(CN2CCC/C(=C\c3ccc(Cl)cc3)C2=O)cc1

- IC50 (Histone deacetylase 1): 617 nM
Compound: Nc1cc(F)ccc1NC(=O)c1ccc(CN2CCC/C(=C\c3ccc(Cl)cc3)C2=O)cc1

- IC50 (Histone deacetylase 1): 636 nM
Compound: Nc1ccccc1NC(=O)c1ccc(CN2CCC/C(=C\c3cccc(Cl)c3)C2=O)cc1

- IC50 (Histone deacetylase 1): 1090 nM
Compound: Nc1cc(F)ccc1NC(=O)c1ccc(CN2CCC/C(=C\c3ccccc3Cl)C2=O)cc1

- IC50 (Histone deacetylase 1): 270 nM
- half-life [1]: 7.78 h
- microsomal CLint [2]: 2.96 µL/min/mg
Compound: Nc1ccccc1NC(=O)c1ccc(CN2CCC/C(=C\c3ccncc3)C2=O)cc1
- Activity (MDA-MB-231 [3]): 77.05%
- Activity (A549 [4]): 98.64%
- Activity (HCT-116): 66.57%
- Activity (TMD8 [5]): 26.34%

Source: ChEMBL document CHEMBL5154672, “Design and synthesis of HDAC inhibitors to enhance the therapeutic effect of diffuse large B-cell lymphoma by improving metabolic stability and pharmacokinetic characteristics” (Eur J Med Chem, 2022)
